According to US20260263340A1, “Cosmetic Products and Cleaning Products Stabilized Against Microbial Attack” (Thor GmbH, priority 2023, published 2026):

Tests used:
yeast mixture 1 = assay: Repeated-inoculation microbiological stress test of all-purpose cleaner, yeast mixture 1; type: cell-based; set-up: key to Yeast growth after inoculation: 0: No growth; Minimal growth, 1 to 10 colonies visible over the entire streak; 2: Light growth, maximum 100 colonies; Moderate growth, maximum 300 to 400 colonies; Uniform growth, >400 colonies, single colonies still clearly recognizable; 5: Heavy growth, too many colonies to count, but no growth over the entire streak; 6: Full growth, barely any single colonies still apparent, growth over the entire streak; conditions: for Yeast growth after inoculation: All-purpose cleaner, 6 d
Excerpt: (§1) The tested cleaning composition was an all-purpose cleaner without preservatives and having a pH of 7.7, the skin lotion was a body lotion without preservatives and having a pH of 7.1, and the shampoo was a hair shampoo without preservatives and having a pH of 6.9.
(§2) The cleaning composition was admixed with particular concentrations of guanidine carbonate and guanidine hydrochloride and homogenized. The body lotion and the hair shampoo were each admixed and homogenized with guanidine hydrochloride and with octane-1,2-diol alone or in combination.
(§3) The batches of the products thus obtained were inoculated repeatedly at particular intervals with bacteria mixtures or yeast mixtures that are used as standard for microbiological stress tests of industrial products or cosmetic products (bacteria mixture 1 and 2, yeast mixture 1 and 2).
(§4) The inoculum was added to the respective sample in each inoculation at 2% (v/w) as a fresh cell suspension in a physiological saline solution (0.9% NaCl). The cell count of the inoculum added was 10^8-10^9/ml for the bacteria mixtures, 10^7-10^8/ml for the yeast mixtures, consisting in equal parts of the individual bacteria strains or yeast strains.
The cell suspension of the yeast mixtures was produced by growing the yeast strains on Sabouraud glucose-agar at 25° C. for 48 hours and washing down the cell lawn in each case with physiological saline solution (0.9% NaCl). Further steps for establishment of a cell count of the inoculum suspension of 10^7/ml to 10^8/ml were effected analogously to the production of the bacteria suspensions.
(§5) In the examples, the samples were inoculated three times at weekly intervals with the respective cell suspensions (2% v/w) and the evolution of the bacteria or yeasts was followed by a semiquantitative evaluation method. After each inoculation, microbial infestation in the samples was evaluated in each case after incubation at 30° C. for 6 to 7 days. For this purpose, an aliquot was taken from each sample after homogenization using a sterile plastic inoculation loop (10 μl) and streaked evenly on agar plates (bacteria mixture 1 and 2 on tryptic soy agar, bacteria mixture 3 on DSMZ 31 alkaline nutrient agar, Sabouraud glucose-agar in the case of yeasts). The streaked agar plates were then incubated at 30° C. for 48 hours (bacteria mixture 1 and 2) or 5 to 7 days (bacteria mixture 3), or at 25° C. for 72 hours (yeast mixtures). After incubation, the bacteria colonies or yeast colonies that have grown on the agar plates were visually evaluated and quantified according to the following scheme:
Inoculation 2% (w/v) with yeast mixture 1, cell count 10^8/ml

bacteria mixture 3 = assay: Repeated-inoculation microbiological stress test of all-purpose cleaner, bacteria mixture 3 (alkaliphilic bacteria); type: cell-based, Nesterenkonia spec.; set-up: key to Bacteria growth after inoculation: 0: No growth; Minimal growth, 1 to 10 colonies visible over the entire streak; 2: Light growth, maximum 100 colonies; Moderate growth, maximum 300 to 400 colonies; Uniform growth, >400 colonies, single colonies still clearly recognizable; 5: Heavy growth, too many colonies to count, but no growth over the entire streak; 6: Full growth, barely any single colonies still apparent, growth over the entire streak; conditions: for Bacteria growth after inoculation: All-purpose cleaner, 7 d
Excerpt: as §1, §2
The cleaning composition was additionally inoculated repeatedly at particular intervals with a special inoculum consisting of a mixture of alkaliphilic bacteria (bacteria mixture 3) that had been isolated from a bacterially contaminated cleaning composition having a pH of 9.8.
as §4
(§6) The cell suspension of the bacteria mixtures was produced by growing the individual bacteria at 30° C. for 24 h in liquid culture on a shaker. The medium used to grow the bacteria from bacteria mixtures 1 and 2 was Müller-Hinton liquid medium. The bacteria from bacteria mixture 3 were grown in Müller-Hinton liquid medium that had been adjusted to pH 9.5 to 9.7 with an alkaline buffer solution beforehand. After growing, the individual liquid cultures were centrifuged, and the cells were resuspended in physiological saline solution. In order to adjust the mixtures to a total cell count of 10^8 to 10^9/ml, the individual bacteria suspensions, if necessary, were diluted accordingly before being combined with saline solution. The cell count of the inoculum suspensions was determined in each case by chamber counting.
as §5
Inoculation 2% (w/v) with bacteria mixture 3, cell count 10^9/ml

bacteria mixture 1 = assay: Repeated-inoculation microbiological stress test of all-purpose cleaner, bacteria mixture 1; type: cell-based; set-up: key to Bacterial growth after inoculation: 0: No growth; Minimal growth, 1 to 10 colonies visible over the entire streak; 2: Light growth, maximum 100 colonies; Moderate growth, maximum 300 to 400 colonies; Uniform growth, >400 colonies, single colonies still clearly recognizable; 5: Heavy growth, too many colonies to count, but no growth over the entire streak; 6: Full growth, barely any single colonies still apparent, growth over the entire streak; conditions: for Bacterial growth after inoculation: All-purpose cleaner, 6 d
Excerpt: as §1, §2, §3, §4, §6, §5
Inoculation 2% (w/v) with bacteria mixture 1, cell count 10^9/ml

[1] = +1000 ppm guanidine carbonate (656 ppm guanidine) pH 9.3, 1. inoculation
[2] = +1000 ppm guanidine carbonate (656 ppm guanidine) pH 9.3, 2. inoculation
[3] = +1000 ppm guanidine carbonate (656 ppm guanidine) pH 9.3, 3. inoculation

SMILES: N=C(N)N.N=C(N)N.O=C(O)O [guanidine carbonate]
- Yeast growth after inoculation (yeast mixture 1; [1]): 1 (Minimal growth, 1 to 10 colonies visible over the entire streak)
- Yeast growth after inoculation (yeast mixture 1; [2]): 1 (Minimal growth, 1 to 10 colonies visible over the entire streak)
- Yeast growth after inoculation (yeast mixture 1; [3]): 3 (Moderate growth, maximum 300 to 400 colonies)
- Yeast growth after inoculation (yeast mixture 1; +2500 ppm guanidine carbonate (1640 ppm guanidine) pH 9.9, 1. inoculation): 0
- Yeast growth after inoculation (yeast mixture 1; +2500 ppm guanidine carbonate (1640 ppm guanidine) pH 9.9, 2. inoculation): 0
- Yeast growth after inoculation (yeast mixture 1; +2500 ppm guanidine carbonate (1640 ppm guanidine) pH 9.9, 3. inoculation): 0
- Yeast growth after inoculation (yeast mixture 1; +5000 ppm guanidine carbonate (3280 ppm guanidine) pH 10.4, 1. inoculation): 0
- Yeast growth after inoculation (yeast mixture 1; +5000 ppm guanidine carbonate (3280 ppm guanidine) pH 10.4, 2. inoculation): 0
- Yeast growth after inoculation (yeast mixture 1; +5000 ppm guanidine carbonate (3280 ppm guanidine) pH 10.4, 3. inoculation): 0
- stability of the all-purpose cleaner to microbial infestation by yeasts (yeast mixture 1; addition of 659 ppm of guanidine in the form of guanidine carbonate at pH 9.9): distinct improvement in stability
- Bacteria growth after inoculation (bacteria mixture 3; +500 ppm guanidine carbonate (328 ppm guanidine) pH 9.1, 1. inoculation): 0
- Bacteria growth after inoculation (bacteria mixture 3; +500 ppm guanidine carbonate (328 ppm guanidine) pH 9.1, 2. inoculation): 2 (Light growth, maximum 100 colonies)
- Bacteria growth after inoculation (bacteria mixture 3; +500 ppm guanidine carbonate (328 ppm guanidine) pH 9.1, 3. inoculation): 2 (Light growth, maximum 100 colonies)
- Bacteria growth after inoculation (bacteria mixture 3; [1]): 0
- Bacteria growth after inoculation (bacteria mixture 3; [2]): 0
- Bacteria growth after inoculation (bacteria mixture 3; [3]): 1 (Minimal growth, 1 to 10 colonies visible over the entire streak)
- Bacteria growth after inoculation (bacteria mixture 3; +2500 ppm guanidine carbonate (1640 ppm guanidine) pH 10.0, 1. inoculation): 0
- Bacteria growth after inoculation (bacteria mixture 3; +2500 ppm guanidine carbonate (1640 ppm guanidine) pH 10.0, 2. inoculation): 0
- Bacteria growth after inoculation (bacteria mixture 3; +2500 ppm guanidine carbonate (1640 ppm guanidine) pH 10.0, 3. inoculation): 0
- Bacteria growth after inoculation (bacteria mixture 3; +5000 ppm guanidine carbonate (3280 ppm guanidine) pH 10.5, 1. inoculation): 0
- Bacteria growth after inoculation (bacteria mixture 3; +5000 ppm guanidine carbonate (3280 ppm guanidine) pH 10.5, 2. inoculation): 0
- Bacteria growth after inoculation (bacteria mixture 3; +5000 ppm guanidine carbonate (3280 ppm guanidine) pH 10.5, 3. inoculation): 0
- stability of the all-purpose cleaner to microbial infestation by bacteria (bacteria mixture 3; addition of 330 ppm of guanidine in the form of guanidine carbonate at pH 9.1): distinct improvement in stability
- Bacterial growth after inoculation (bacteria mixture 1; +1000 ppm guanidine carbonate (656 ppm guanidine) pH 9.2, 1. inoculation): 0
- Bacterial growth after inoculation (bacteria mixture 1; +1000 ppm guanidine carbonate (656 ppm guanidine) pH 9.2, 2. inoculation): 0
- Bacterial growth after inoculation (bacteria mixture 1; +1000 ppm guanidine carbonate (656 ppm guanidine) pH 9.2, 3. inoculation): 5
- Bacterial growth after inoculation (bacteria mixture 1; +1500 ppm guanidine carbonate (984 ppm guanidine) pH 9.5, 1. inoculation): 0
- Bacterial growth after inoculation (bacteria mixture 1; +1500 ppm guanidine carbonate (984 ppm guanidine) pH 9.5, 2. inoculation): 0
- Bacterial growth after inoculation (bacteria mixture 1; +1500 ppm guanidine carbonate (984 ppm guanidine) pH 9.5, 3. inoculation): 0
- stability of the all-purpose cleaner to microbial infestation by bacteria (bacteria mixture 1; addition of 659 ppm of guanidine in the form of guanidine carbonate at pH 9.2 or pH 9.5): distinct improvement in stability
